Results on eight compounds are retold here after patent US20250206761A1, “HALOINDOLE MACROCYCLIC COMPOUNDS FOR THE TREATMENT OF CANCER” (Hoffmann-La Roche Inc., priority 2022, published 2025).

The term IC50 denotes the concentration that inhibits the measured activity by half. Low values mean greater potency in that assay, high ones weaker potency in that assay.

The test system of assay [1] is AGS (ATCC-CRL-1739) cells. As to the kind of experiment: Cell viability assay, G12D (AGS). In kind it is cell-based, human. To be noted: Homo sapiens, KRAS cell viability, 72 hrs, Cell Counting Kit-8. An outline of the steps: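 Cells seeded at 5,000/well (NCI-H358) or 2,000/well (AGS, SW620), treated next day at 0.5% final DMSO for 72 h. Viability read by CCK-8 (OD450 minus OD650) after 2 h; IC50 from 4-parameter sigmoidal fit.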

In assay [2] the target is T1, KRAS G12C-BRAF complex (Homo sapiens (Human), UniProt P01116+P62937, G12C). Description: KRAS G12C-BRAF NanoBit assay. The conditions noted are these: HEK293 cells, 3 hours of incubation. The format is cell-based. An outline of the steps: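 Stable HEK293 pool co-expressing SmBit-KRAS G12C and BRAF RBD-LgBit; 10,000 cells/well incubated 3 h with compound, 16-point 3-fold dilution from 30 μM final. Live-cell Nano-Glo substrate added, luminescence read at 20 min; disruption seen as luminescence decrease vs DMSO.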
T1 sequence (P01116-2 other isoform, or with tags, fused parts or gaps G12C): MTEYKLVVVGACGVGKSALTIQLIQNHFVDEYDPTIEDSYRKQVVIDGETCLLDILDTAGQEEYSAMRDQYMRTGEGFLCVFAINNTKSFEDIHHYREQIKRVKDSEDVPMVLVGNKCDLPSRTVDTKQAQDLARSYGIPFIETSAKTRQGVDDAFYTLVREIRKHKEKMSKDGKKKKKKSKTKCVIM
T1 sequence (P62937 whole entry): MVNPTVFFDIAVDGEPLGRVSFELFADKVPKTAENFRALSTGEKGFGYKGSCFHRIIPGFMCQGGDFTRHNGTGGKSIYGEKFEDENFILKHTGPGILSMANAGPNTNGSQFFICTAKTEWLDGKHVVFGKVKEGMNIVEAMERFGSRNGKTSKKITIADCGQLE

Assay [3] has as its target KRAS G12D binding to BRAF (Homo sapiens (Human), UniProt P01116+P62937, G12D). Description: KRAS-BRAF with CYPA (500 nM) interaction assay (TR-FRET), G12D. In kind it is biochemical. (TR-FRET usually uses a lanthanide donor and a delayed reading to cut background.)
Assay [4] has as its target T1, KRAS G12C-BRAF complex. Description: KRAS-BRAF with CYPA (500 nM) interaction assay (TR-FRET), G12C. In kind it is biochemical.
Assay [5] addresses KRAS G12V binding to BRAF (Homo sapiens (Human), UniProt P01116+P62937, G12V). Description: KRAS-BRAF with CYPA (500 nM) interaction assay (TR-FRET), G12V. The format is biochemical. An outline of the steps: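 A TR-FRET assay measured how compound, in the presence of CYPA, disrupts binding of GMPPNP-loaded 6His-KRAS G12V to BRAF. The buffer contained 25 mM HEPES PH=7.4, 0.002% Tween20, 0.1% BSA, 100 mM NaCl, 5 mM MgCl2 and 10 μM GMPPNP. Compounds ran as a 16-point 3-fold dilution series from 10 μM for 3 hours.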

Structures are written as SMILES.

Chain of KRAS G12V binding to BRAF (P01116-2 other isoform, or with tags, fused parts or gaps G12V): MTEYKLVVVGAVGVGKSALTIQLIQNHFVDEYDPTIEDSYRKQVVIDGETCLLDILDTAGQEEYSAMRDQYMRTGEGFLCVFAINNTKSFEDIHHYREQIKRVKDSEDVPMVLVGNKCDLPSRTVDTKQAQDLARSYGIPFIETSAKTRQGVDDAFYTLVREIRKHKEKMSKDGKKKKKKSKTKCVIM
Chain of KRAS G12V binding to BRAF (P62937 whole entry): as the sequence (P62937 whole entry) above
Chain of KRAS G12D binding to BRAF (P01116-2 other isoform, or with tags, fused parts or gaps G12D): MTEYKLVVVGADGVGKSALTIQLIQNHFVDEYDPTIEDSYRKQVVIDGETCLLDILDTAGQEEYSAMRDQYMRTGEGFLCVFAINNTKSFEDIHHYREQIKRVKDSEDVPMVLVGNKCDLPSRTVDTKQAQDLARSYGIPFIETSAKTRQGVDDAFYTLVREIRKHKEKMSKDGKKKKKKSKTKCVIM
Chain of KRAS G12D binding to BRAF (P62937 whole entry): as the sequence (P62937 whole entry) above

On to `CCn1c(-c2cc(N3CCOCC3)cnc2[C@H](C)OC)c2c3cc(c(F)cc31)-c1csc(n1)C[C@H](NC(=O)[C@H](C(C)C)N1CCC3(CN(C(=O)[C@H](F)Cl)C3)C1=O)C(=O)N1CCC[C@H](N1)C(=O)OCC(C)(C)C2` (atropisomer, axis not shown; (M)) [Example 52, (2S)-2-[2-[(2R)-2-chloro-2-fluoro-acetyl]-5-oxo-2,6-diazaspiro[3.4]octan-6-yl]-N-[(7S,13S)-21-ethyl-24-fluoro-(20M)-20-[2-[(1S)-1-methoxyethyl]-5-morpholino-3-pyridyl]-17,17-dimethyl-8,14-dioxo-15-oxa-4-thia-9,21,27,28-tetrazapentacyclo[17.5.2.1^2,5.1^9,13.0^22,26]octacosa-1(25),2,5(28),19,22(26),23-hexaen-7-yl]-3-methyl-butanamide], for which the IC50 in assay [1] is 4720 nM; against KRAS G12C-BRAF complex [2], 70 nM; in assay [3] it was 2060 nM; at KRAS G12C-BRAF complex [4], 115 nM; in assay [5], more than 10 µM.

On to `CCn1c(-c2cc(N3CCOCC3)cnc2[C@H](C)OC)c2c3cc(c(F)cc31)-c1csc(n1)C[C@H](NC(=O)[C@H](C(C)C)N1CC[C@@]3(CCN(C(=O)[C@H](F)Cl)C3)C1=O)C(=O)N1CCC[C@H](N1)C(=O)OCC(C)(C)C2` (atropisomer, axis not shown; (M)) [Example 53, (2S)-2-[(5R)-7-[(2R)-2-chloro-2-fluoro-acetyl]-1-oxo-2,7-diazaspiro[4.4]nonan-2-yl]-N-[(7S,13S)-21-ethyl-24-fluoro-(20M)-20-[2-[(1S)-1-methoxyethyl]-5-morpholino-3-pyridyl]-17,17-dimethyl-8,14-dioxo-15-oxa-4-thia-9,21,27,28-tetrazapentacyclo[17.5.2.1^2,5.1^9,13.0^22,26]octacosa-1(25),2,5(28),19,22(26),23-hexaen-7-yl]-3-methyl-butanamide], for which the IC50 is 1320 nM in assay [1]; 17 nM at KRAS G12C-BRAF complex [2]; more than 10000 nM in assay [3]; 56 nM against KRAS G12C-BRAF complex [4]; more than 10 µM in assay [5].

Consider `CCn1c(-c2cc(N3CCOCC3)cnc2[C@H](C)OC)c2c3cc(c(F)cc31)-c1csc(n1)C[C@H](NC(=O)[C@H](C(C)C)N(C)C(=O)C1(F)CCN(C(=O)[C@H](F)Cl)CC1)C(=O)N1CCC[C@H](N1)C(=O)OCC(C)(C)C2` (atropisomer, axis not shown; (M)) [Example 54, 1-[(2R)-2-chloro-2-fluoro-acetyl]-N-[(1S)-1-[[(7S,13S)-21-ethyl-24-fluoro-(20M)-20-[2-[(1S)-1-methoxyethyl]-5-morpholino-3-pyridyl]-17,17-dimethyl-8,14-dioxo-15-oxa-4-thia-9,21,27,28-tetrazapentacyclo[17.5.2.1^2,5.1^9,13.0^22,26]octacosa-1(25),2,5(28),19,22(26),23-hexaen-7-yl]carbamoyl]-2-methyl-propyl]-4-fluoro-N-methyl-piperidine-4-carboxamide], for which the IC50 was determined as 72 nM in assay [1]; 3 nM on KRAS G12C-BRAF complex [2]; 303 nM in assay [3]; 19 nM on KRAS G12C-BRAF complex [4]; 0.217 µM in assay [5].

With `CCn1c(-c2cc(N3CCOCC3)cnc2[C@H](C)OC)c2c3cc(c(F)cc31)-c1csc(n1)C[C@H](NC(=O)[C@H](C(C)C)N(C)C(=O)[C@H]1CCN(C(=O)[C@H](F)Cl)C1)C(=O)N1CCC[C@H](N1)C(=O)OCC(C)(C)C2` (atropisomer, axis not shown; (M)) [Example 55, (3S)-1-[(2R)-2-chloro-2-fluoro-acetyl]-N-[(1S)-1-[[(7S,13S)-21-ethyl-24-fluoro-(20M)-20-[2-[(1S)-1-methoxyethyl]-5-morpholino-3-pyridyl]-17,17-dimethyl-8,14-dioxo-15-oxa-4-thia-9,21,27,28-tetrazapentacyclo[17.5.2.1^2,5.1^9,13.0^22,26]octacosa-1(25),2,5(28),19,22(26),23-hexaen-7-yl]carbamoyl]-2-methyl-propyl]-N-methyl-pyrrolidine-3-carboxamide], the IC50 in assay [1] was 848 nM; at KRAS G12C-BRAF complex [2], 10 nM; in assay [3] it was more than 10000 nM; on KRAS G12C-BRAF complex [4], 40 nM; in assay [5] it was 2.11 µM.

Take `CO[C@@H](C)c1ncc(N2CCN(C)CC2)cc1-c1c2c3cc(c(F)cc3n1CC(F)(F)F)-c1csc(n1)C[C@H](NC(=O)[C@H](C(C)C)N1CCC[C@@]3(CCN(C(=O)[C@H](F)Cl)C3)C1=O)C(=O)N1CCC[C@H](N1)C(=O)OCC(C)(C)C2` (single isomer, unassigned) [Example 16]: the IC50 in assay [1] is 2650 nM; at KRAS G12C-BRAF complex [2] it was 8 nM; in assay [3], more than 10000 nM; at KRAS G12C-BRAF complex [4] it was 100 nM; in assay [5], more than 10 µM.

Turning to `CO[C@@H](C)c1ncc(N2CCN(C)CC2)cc1-c1c2c3cc(c(F)cc3n1CC(F)(F)F)-c1csc(n1)C[C@H](NC(=O)[C@H](C(C)C)N1CCC[C@]3(CCN(C(=O)[C@H](F)Cl)C3)C1=O)C(=O)N1CCC[C@H](N1)C(=O)OCC(C)(C)C2` (single isomer, unassigned) [Example 18], the IC50 in assay [1] worked out at 3700 nM; against KRAS G12C-BRAF complex [2], 12 nM; in assay [3], 1660 nM; against KRAS G12C-BRAF complex [4], 71 nM; in assay [5], 3.33 µM.

Turning to `CC(C)[C@@H](C(=O)N[C@H]1Cc2cc(O)cc(c2)-c2ccc3c(C(C)(C)C#N)cn(c3c2)CC(C)(C)COC(=O)[C@@H]2CCCN(N2)C1=O)N1CCC2(CN(C(=O)CCl)C2)C1=O` [RM44, reference compound], the IC50 in assay [1] was 6230 nM; at KRAS G12C-BRAF complex [2] it was 11700 nM; in assay [3], more than 10000 nM; on KRAS G12C-BRAF complex [4], 17 nM; in assay [5] it was more than 10 µM.

As for `CC(C)[C@@H](C(=O)N[C@H]1Cc2cc(O)cc(c2)-c2ccc3c(C(C)(C)C#N)cn(c3c2)CC(C)(C)COC(=O)[C@@H]2CCCN(N2)C1=O)N1CCCC2(CCN(C(=O)CCl)C2)C1=O` (stereo partly shown) [RM351, reference compound], the IC50 in assay [1] was 2100 nM; against KRAS G12C-BRAF complex [2], 1780 nM; in assay [3] it was more than 10000 nM; against KRAS G12C-BRAF complex [4] it was more than 10000 nM; in assay [5], more than 10 µM.
